Laboratory results as given in US20070135490A1, “Phenetanolamine derivatives” (priority 2003, published 2007).

target: T1, human beta-2 receptor (Homo sapiens, UniProt P07550); assay: Chinese hamster ovary cells co-expressing the human receptor with a reporter gene, cAMP measurement in whole cells or membranes (Method 2); format: cell-based; settings: CHO cells or membranes, read-out: pEC50 at the human beta-2 receptor (converted)
T1 construct: expressed in transfected cells; host or cells: Chinese hamster ovary cells (whole cells or membranes derived from them)
T1 sequence (P07550 whole entry): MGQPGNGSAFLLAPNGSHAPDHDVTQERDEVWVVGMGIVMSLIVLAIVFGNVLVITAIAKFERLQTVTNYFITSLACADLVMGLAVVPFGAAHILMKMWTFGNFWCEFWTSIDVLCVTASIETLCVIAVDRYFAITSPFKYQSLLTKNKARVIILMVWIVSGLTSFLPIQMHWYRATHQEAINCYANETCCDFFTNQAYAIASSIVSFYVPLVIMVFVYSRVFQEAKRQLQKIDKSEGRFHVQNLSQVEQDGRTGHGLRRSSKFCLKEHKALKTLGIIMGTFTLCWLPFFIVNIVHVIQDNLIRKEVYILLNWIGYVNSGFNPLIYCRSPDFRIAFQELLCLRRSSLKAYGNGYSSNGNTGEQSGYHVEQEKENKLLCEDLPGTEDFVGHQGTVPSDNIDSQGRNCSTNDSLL
Description: Potency of compounds of the invention at the human beta 2, 1 and 3 receptors was also determined using Chinese hamster ovary cells co-expressing the human receptor with a reporter gene. Studies were performed using either whole cells or membranes derived from those cells.
The three beta-receptors are coupled via the Gs G-protein to cause a simulation of adenylate cyclase resulting in increased levels of cAMP in the cell. For direct cAMP measurements either membranes or cells have been used with either the HitHunter enzyme fragment complementation kit (DiscoveRx) or the FP^2 fluorescence polarisation kit (Perkin Elmer) to quantify the levels of cAMP present. These assays provide a measure of agonist potency and intrinsic activity of the compounds at the various receptors. […]
In this assay the potency of compounds at the human beta-2 receptor is expressed as a pEC50 value. Compounds of examples 12-26, 28-50 and 52-64 had pEC50 values greather than 6. […] No result is available for the compound of example 51.

EC50 [nM]	Structure (SMILES)
< 1000	NC(=O)c1cccc(COCc2cccc(CCNC[C@H](O)c3ccc(O)c(CO)c3)c2)c1 [Example 53, Formic acid compound with 3-[({3-[2-({(2R)-2-hydroxy-2-[4-hydroxy-3-(hydroxymethyl)phenyl]ethyl}amino)ethyl]benzyl}oxy)methyl]benzamide (1:1)]
< 1000	OCc1cc([C@@H](O)CNCCc2cccc(COCCc3cccc(F)c3)c2)ccc1O [Example 39, Formic acid compound with 4-((1R)-2-{[2-(3-{[2-(3-fluorophenyl)ethoxy]methyl}phenyl)ethyl]amino}-1-hydroxyethyl)-2-(hydroxymethyl)phenol (1:1)]
< 1000	N#Cc1ccc(COCc2cccc(CCNC[C@H](O)c3ccc(O)c(CO)c3)c2)cc1 [Example 43, Formic acid compound with 4-[({3-[2-({(2R)-2-hydroxy-2-[4-hydroxy-3-(hydroxymethyl)phenyl]ethyl}amino)ethyl]benzyl}oxy)methyl]benzonitrile (1:1)]
< 1000	OCc1cc([C@@H](O)CNCCc2cccc(COCCCc3cccc(O)c3)c2)ccc1O [Example 28, Formic acid compound with 4-((1R)-1-hydroxy-2-{[2-(3-{[3-(3-hydroxyphenyl)propoxy]methyl}phenyl)ethyl]amino}ethyl)-2-(hydroxymethyl)phenol (1:1)]
< 1000	OCc1cc([C@@H](O)CNCCc2cccc(COCc3ccc(F)cc3)c2)ccc1O [Example 50, Formic acid compound with 4-((1R)-2-{[2-(3-{[(4-fluorobenzyl)oxy]methyl}phenyl)ethyl]amino}-1-hydroxyethyl)-2-(hydroxymethyl)phenol (1:1)]
< 1000	OCc1cc([C@@H](O)CNCCc2cccc(COCCOCc3cccc(O)c3)c2)ccc1O [Example 32, Formic acid compound with 4-[(1R)-1-hydroxy-2-({2-[3-({2-[(3-hydroxybenzyl)oxy]ethoxy}methyl)phenyl]ethyl}amino)ethyl]-2-(hydroxymethyl)phenol (1:1)]
< 1000	N#Cc1ccc(CCCCOCc2cccc(CCNC[C@H](O)c3ccc(O)c(CO)c3)c2)cc1 [Example 21, Formic acid compound with 4-[4-({3-[2-({(2R)-2-hydroxy-2-[4-hydroxy-3-(hydroxymethyl)phenyl]ethyl}amino)ethyl]benzyl}oxy)butyl]benzonitrile (1:1)]
< 1000	OCc1cc([C@@H](O)CNCCc2cccc(COCc3ccccc3F)c2)ccc1O [Example 48, Formic acid compound with 4-((1R)-2-{[2-(3-{[(2-fluorobenzyl)oxy]methyl}phenyl)ethyl]amino}-1-hydroxyethyl)-2-(hydroxymethyl)phenol (1:1)]
< 1000	OCc1cc([C@@H](O)CNCCc2cccc(COCCOCc3cccc(F)c3)c2)ccc1O [Example 15, Formic acid compound with 4-[(1R)-2-({2-[3-({2-[(3-fluorobenzyl)oxy]ethoxy}methyl)phenyl]ethyl}amino)-1-hydroxyethyl]-2-(hydroxymethyl)phenol (1:1)]
< 1000	CS(=O)(=O)c1ccc(CCCOCc2cccc(CCNC[C@H](O)c3ccc(O)c(CO)c3)c2)cc1 [Example 23, Formic acid compound with 2-(hydroxymethyl)-4-[(1R)-1-hydroxy-2-({2-[3-({3-[4-(methylsulfonyl)phenyl]propoxy}methyl)phenyl]ethyl}amino)ethyl]phenol (1:1)]
< 1000	N#Cc1cccc(COCc2cccc(CCNC[C@H](O)c3ccc(O)c(CO)c3)c2)c1 [Example 42, Formic acid compound with 3-[({3-[2-({(2R)-2-hydroxy-2-[4-hydroxy-3-(hydroxymethyl)phenyl]ethyl}amino)ethyl]benzyl}oxy)methyl]benzonitrile (1:1)]
< 1000	OCc1cc([C@@H](O)CNCCc2cccc(COCc3cccc(F)c3)c2)ccc1O [Example 49, Formic acid compound with 4-((1R)-2-{[2-(3-{[(3-fluorobenzyl)oxy]methyl}phenyl)ethyl]amino}-1-hydroxyethyl)-2-(hydroxymethyl)phenol (1:1)]

Continued, molecule first:

Structure (SMILES)	EC50 [nM]
O=S(=O)(c1cccc(COCCOCc2cccc(CCNC[C@H](O)c3ccc(O)c(CO)c3)c2)c1)C1CCCC1 [Example 33, Formic acid compound with 4-{(1R)-2-[(2-{3-[(2-{[3-(cyclopentylsulfonyl)benzyl]oxy}ethoxy)methyl]phenyl}ethyl)amino]-1-hydroxyethyl}-2-(hydroxymethyl)phenol (1:1)]	< 1000
COc1cccc(COCCOCc2cccc(CCNC[C@H](O)c3ccc(O)c(CO)c3)c2)c1 [Example 17, Formic acid compound with 4-[(1R)-1-hydroxy-2-({2-[3-({2-[(3-methoxybenzyl)oxy]ethoxy}methyl)phenyl]ethyl}amino)ethyl]-2-(hydroxymethyl)phenol (1:1)]	< 1000
NC(=O)c1cccc(COCCOCc2cccc(CCNC[C@H](O)c3ccc(O)c(CO)c3)c2)c1 [Example 52, Formic acid compound with 3-{[2-({3-[2-({(2R)-2-hydroxy-2-[4-hydroxy-3-(hydroxymethyl)phenyl]ethyl}amino)ethyl]benzyl}oxy)ethoxy]methyl}benzamide (1:1)]	< 1000
Cc1cc(C)cc(COCCOCc2cccc(CCNC[C@H](O)c3ccc(O)c(CO)c3)c2)c1 [Example 16, Formic acid compound with 4-[(1R)-2-({2-[3-({2-[(3,5-dimethylbenzyl)oxy]ethoxy}methyl)phenyl]ethyl}amino)-1-hydroxyethyl]-2-(hydroxymethyl)phenol (1:1)]	< 1000
O=S(=O)(c1cccc(CCCOCc2cccc(CCNC[C@H](O)c3ccc(O)c(CO)c3)c2)c1)C1CCCC1 [Example 31, Formic acid compound with 4-[(1R)-2-({2-[3-({3-[3-(cyclopentylsulfonyl)phenyl]propoxy}methyl)phenyl]ethyl}amino)-1-hydroxyethyl]-2-(hydroxymethyl)phenol (1:1)]	< 1000
N#Cc1cccc(CCCOCc2cccc(CCNC[C@H](O)c3ccc(O)c(CO)c3)c2)c1 [Example 22, Formic acid compound with 3-[3-({3-[2-({(2R)-2-hydroxy-2-[4-hydroxy-3-(hydroxymethyl)phenyl]ethyl}amino)ethyl]benzyl}oxy)propyl]benzonitrile (1:1)]	< 1000
O=S(=O)(c1ccc(CCCCOCc2cccc(CCNC[C@H](O)c3ccc(O)c(CO)c3)c2)cc1)C1CCCC1 [Example 29, Formic acid compound with 4-[(1R)-2-({2-[3-({4-[4-(cyclopentylsulfonyl)phenyl]butoxy}methyl)phenyl]ethyl}amino)-1-hydroxyethyl]-2-(hydroxymethyl)phenol (1:1)]	< 1000
N#Cc1cccc(COCCOCc2cccc(CCNC[C@H](O)c3ccc(O)c(CO)c3)c2)c1 [Example 13, Formic acid compound with 3-{[2-({3-[2-({(2R)-2-hydroxy-2-[4-hydroxy-3-(hydroxymethyl)phenyl]ethyl}amino)ethyl]benzyl}oxy)ethoxy]methyl}benzonitrile (1:1)]	< 1000
NC(=O)Nc1cccc(CCCCOCc2cccc(CCNC[C@H](O)c3ccc(O)c(CO)c3)c2)c1 [Example 58, Formic acid compound with N-{3-[4-({3-[2-({(2R)-2-hydroxy-2-[4-hydroxy-3-(hydroxymethyl)phenyl]ethyl}amino)ethyl]benzyl}oxy)butyl]phenyl}urea (1:1)]	< 1000
O=S(=O)(c1cccc(COCc2cccc(CCNC[C@H](O)c3ccc(O)c(CO)c3)c2)c1)C1CCCC1 [Example 35, Formic acid compound with 4-[(1R)-2-({2-[3-({[3-(cyclopentylsulfonyl)benzyl]oxy}methyl)phenyl]ethyl}amino)-1-hydroxyethyl]-2-(hydroxymethyl)phenol (1:1)]	< 1000
OCc1cc([C@@H](O)CNCCc2cccc(COCCCCc3cccc(O)c3)c2)ccc1O [Example 19, Formic acid compound with 4-((1R)-1-hydroxy-2-{[2-(3-{[4-(3-hydroxyphenyl)butoxy]methyl}phenyl)ethyl]amino}ethyl)-2-(hydroxymethyl)phenol (1:1)]	< 1000
OCc1cc([C@@H](O)CNCCc2cccc(COCCOc3ccccc3)c2)ccc1O [Example 38, Formic acid compound with 2-(hydroxymethyl)-4-{(1R)-1-hydroxy-2-[(2-{3-[(2-phenoxyethoxy)methyl]phenyl}ethyl)amino]ethyl}phenol (1:1)]	< 1000
OCc1cc([C@@H](O)CNCCc2cccc(COCCOCc3c(Cl)cccc3Cl)c2)ccc1O [Example 14, Formic acid compound with 4-[(1R)-2-({2-[3-({2-[(2,6-dichlorobenzyl)oxy]ethoxy}methyl)phenyl]ethyl}amino)-1-hydroxyethyl]-2-(hydroxymethyl)phenol (1:1)]	< 1000
OCc1cc([C@@H](O)CNCCc2cccc(COCCOCc3cccc(OC(F)(F)F)c3)c2)ccc1O [Example 18, Formic acid compound with 2-(hydroxymethyl)-4-{(1R)-1-hydroxy-2-[(2-{3-[(2-{[3-(trifluoromethoxy)benzyl]oxy}ethoxy)methyl]phenyl}ethyl)amino]ethyl}phenol (1:1)]	< 1000
C[C@@H](OCc1cccc(CCNC[C@H](O)c2ccc(O)c(CO)c2)c1)c1ccccc1 [Example 44, Formic acid compound with 2-(hydroxymethyl)-4-[(1R)-1-hydroxy-2-({2-[3-({[(1R)-1-phenylethyl]oxy}methyl)phenyl]ethyl}amino)ethyl]phenol (1:1)]	< 1000
